Experimental data as given in patent publication US8865672B2, “Prevention of tissue ischemia and related methods” (The United States of America, as represented by the …, priority 2006, dated 2014).

Legend:
CD47 [1] = assay: Western analysis of CD47 in HUVEC; assay type: cell-based, human; settings: morpholino 0.1-10 μM, 48 h
Protocol: HUVEC were plated in 12-well culture plates (5×10^4 cells/well) (Nunc, Denmark) in full growth medium and treated over 48 h with indicated doses of CD47 and control morpholino. Cells were subsequently washed twice with PBS and lysed immediately in 1×SDS sample buffer containing 10 µg/mL leupeptin, […] aprotinin, 1 mM Na3VO4, and 40 mM NaF. Lysates prepared in the SDS sample buffer described above were electrophoresed in 4-12% BisTris NuPAGE gels and transferred to PVDF membranes prior to immunoblotting with a monoclonal antibody to CD47 (clone B6H12, Lab Visions, Inc, Fremont, Calif.). The membrane was stripped and reprobed with a monoclonal antibody against β-actin (Sigma-Aldrich, St. Louis, Mo.).

[2] = tested on: murine ASMC (WT, CD36 null, CD47 null); assay: Murine ASMC adhesion on type I collagen; assay type: cell-based, mouse; settings: CD47 null MASMC
Protocol: (§1) Murine ASMC were obtained from aortic segments harvested sterilely from C57B1/6 CD47 null or CD36 null mice as described (Ray et al., Methods Cell Sci 23:185-188, 2001) and cultured in SM-GM (Cambrex)+20% FCS. In the case of CD36 null cells, culture flasks were pre-coated with 1% gelatin prior to cell plating. Wild type C57B1/6 ASMC cultures were prepared as previously described (Isenberg et al., Matrix Biol 24:110-123, 2005). Cell culture purity was determined by immunohistochemistry staining for α-smooth muscle actin. Cells were used within passage 1 to 4 to minimize overgrowth of other cell types.
Cell adhesion was carried out in 96-well culture plates. After pre-coating wells with type I collagen (3 μg/ml in DPBS) harvested cells were plated at a density of 1×10^4 cells/well in medium plus 0.1% BSA and treatment agents and incubated in 5% CO2 for 1 h. Wells were washed with PBS and cells fixed with 1% glutaraldehyde for 10 min., washed and stained with 1% crystal violet for 20 min. Excess stain was rinsed away, adherent cells treated with 10% acetic acid, and plates read at 570 nm.

murine ASMC (CD47 null) = assay: Murine ASMC proliferation; assay type: cell-based, mouse; settings: CD47 null MASMC
Protocol: as §1
Proliferation of vascular cells was measured with a non-radioactive colorimetric assay (CellTiter 96, Promega, Madison, Wis.). Briefly, to each well of a 96-well culture plate (Nunc, Denmark) 5×10^3 cells were suspended in 100 μl of culture medium with indicated treatments and incubated for 72 hours at 37° C. in a 5% CO2 atmosphere. Following incubation 20 μl of tetrazolium compound/solubilization agent was added and incubation continued for 4 hours under the same conditions. The plate was then read on a MR580 Microelisa Auto Reader (Dynatech) at a wavelength of 490 nm. Appropriate zero time controls were run for all assays and the optical density readings obtained then subtracted from those obtained at 72 hours.

[3] = tested on: murine aortic VSMC (WT, TSP1 null, CD47 null); assay: 3D collagen gel contraction assay, murine VSMC; assay type: cell-based, mouse; settings: for relaxation of pre-contracted VSMC by NO: TSP1 2.2 nM
Protocol: Type I collagen gel (3 mg/ml) with 10×M199 (Gibco, Grand Island, N.Y.) at a 10:1 ratio of collagen to medium was prepared, pH balanced with NaOH and seeded with either HAVSMC or VSMC harvested from aortic segments from C57B16 WT or TSP1 null mice (50,000 cells in 75 μl of gel/well) and aliquoted to 96-well plates (Nunc, Denmark). Plates were incubated for 12 h 37° C. and 5% CO2 allowing for gelation and cell spreading, gently released from the well walls and incubated in serum and additive deficient growth medium with 0.1% BSA in the presence of the indicated treatment agents for 10 h. Contraction was determined by measuring the diameter in perpendicular planes (x, y) of each disk, an average obtained and surface area calculated as (d/2)^2π. Experiments were performed in triplicate. Results represent the mean±SD of at least three separate experiments.
Collagen gel contraction assays were performed using murine derived VSMC (7.5×10^4 cells/gel) as described (Isenberg et al., Blood 2006; Example 2). Wells receiving TSP1 were pre-incubated with the indicated concentrations of agent overnight. Contraction was initiated with either 10% FCS or sphingosine 1-phosphate (S1P, 100 nM).

[4] = tested on: murine WT and TSP1-null platelets; assay: cGMP in murine platelets; assay type: cell-based, mouse; settings: WT and null platelets, TSP1 2.2 nM
Protocol: After induction of general anesthesia with isoflurane 2%, age and sex matched C57BL/6 WT and TSP1-null mice underwent cardiac puncture. Blood was aspirated into 1 cc syringes with a 25 gauge needle containing 100 μl heparin (Heparin Lock Flush, Abbott, Chicago, Ill.), mixed with 100 μl 3% ACD and centrifuged in 1.2 ml S-Monovette separation tubes (Sarstedt, Germany). PRP was aspirated off, centrifuged, and the resulting platelet pellet was resuspended in 200 μl of Tyrode's buffer.
Fresh human platelets at 2×10^5 platelets/μl in Tyrode's buffer or PRP were pre-incubated with the indicated agents for 15 minutes and then challenged with DEA/NO for the indicated time interval at room temperature and total cGMP determined via immunoassay (Amersham, GE Healthcare, Buckinghamshire, UK). Murine WT and TSP1-null platelets were treated with DEA/NO and cGMP flux measured.

CD47 [5] = assay: Western analysis of CD47 in human aortic VSMC; assay type: cell-based; settings: 48 hours
Protocol: Human aortic VSMC were plated onto 12-well culture plates (Nunc) at a density of 5×10^4 cells/well in SM-GM+2% FCS and cultured until approximately 90% confluent. A translation-blocking antisense morpholino oligonucleotide complementary to human and murine CD47 ([…]; SEQ ID NO: 21) and a five-base mismatch control (CGTgACAGcCAcGACCgACTGCgCA; SEQ ID NO: 22) were obtained from GeneTools (Philomath, Oreg.). Cultured cells were treated as per the manufacturer's recommendation with morpholinos (10 μM) and utilized within 48 hours of treatment.
Murine VSMC were plated in 12-well culture plates (5×10^4 cells/well) (Nunc) in growth medium and weaned over 48 h of additives and serum and then treated in basic medium with 0.1% BSA. Cells were washed twice with PBS and lysed in 1×SDS sample buffer containing 10 μg/mL leupeptin, 10 μg/mL aprotinin, 1 mM Na3VO4, and 40 mM NaF. Lysates prepared in the SDS sample buffer described above were electrophoresed in 4-12% BisTris NuPAGE gels and transferred to PVDF membranes prior to immunoblotting using a mouse monoclonal CD47 antibody, clone B6H12 (Lab Visions, Fremont, Calif.).

| Substance | CD47 expression (Western) (CD47 [1]) | NO-stimulated adhesion ([2]; 22 nM) | NO-stimulated adhesion ([2]; concentrations up to 2.2 nM) | NO-stimulated proliferation (murine ASMC (CD47 null)) | relaxation of pre-contracted VSMC by NO ([3]; CD47 null VSMC) | contractile response to S1P ([3]; TSP1 null murine VSMC) | relaxation of pre-contracted VSMC by NO ([3]; wild type cells) | NO-driven flux in platelet cGMP [4] | CD47 protein (Western) (CD47 [5]) |
| --- | --- | --- | --- | --- | --- | --- | --- | --- | --- |
| CGTgACAGcCAcGACCgACTGCgCA (antisense CGTGACAGCCACGACCGACTGCGCA; all phosphorodiamidate morpholino (PMO)) [control morpholino, reference compound] | did not show suppression of CD47 | – | – | – | – | – | – | – | – |
| TSP1: thrombospondin-1 prepared from human platelets | – | only moderately inhibited | had no effect | did not inhibit | absent | increased the contractile response of TSP1 null cells to S1P | completely inhibited | decreased the NO-driven flux in platelet cGMP | – |
| CGTCACAGGCAGGACCCACTGCCCA (all phosphorodiamidate morpholino (PMO)) [CD47 morpholino] | Effective dose-dependent suppression of CD47 | – | – | – | – | – | – | – | dose dependent decrease in CD47 protein |
